# Measurements: US20210300943A1, “OGA INHIBITOR COMPOUNDS” (Janssen Pharmaceutica NV, priority 2018, published 2021)
# Biological target: T1, OGA (Homo sapiens, UniProt O60502)
# T1 construct: endogenous in cells; host or cells: HEK293 cells inducible for P301L mutant human Tau (2N4R)
# T1 sequence (O60502 1-916): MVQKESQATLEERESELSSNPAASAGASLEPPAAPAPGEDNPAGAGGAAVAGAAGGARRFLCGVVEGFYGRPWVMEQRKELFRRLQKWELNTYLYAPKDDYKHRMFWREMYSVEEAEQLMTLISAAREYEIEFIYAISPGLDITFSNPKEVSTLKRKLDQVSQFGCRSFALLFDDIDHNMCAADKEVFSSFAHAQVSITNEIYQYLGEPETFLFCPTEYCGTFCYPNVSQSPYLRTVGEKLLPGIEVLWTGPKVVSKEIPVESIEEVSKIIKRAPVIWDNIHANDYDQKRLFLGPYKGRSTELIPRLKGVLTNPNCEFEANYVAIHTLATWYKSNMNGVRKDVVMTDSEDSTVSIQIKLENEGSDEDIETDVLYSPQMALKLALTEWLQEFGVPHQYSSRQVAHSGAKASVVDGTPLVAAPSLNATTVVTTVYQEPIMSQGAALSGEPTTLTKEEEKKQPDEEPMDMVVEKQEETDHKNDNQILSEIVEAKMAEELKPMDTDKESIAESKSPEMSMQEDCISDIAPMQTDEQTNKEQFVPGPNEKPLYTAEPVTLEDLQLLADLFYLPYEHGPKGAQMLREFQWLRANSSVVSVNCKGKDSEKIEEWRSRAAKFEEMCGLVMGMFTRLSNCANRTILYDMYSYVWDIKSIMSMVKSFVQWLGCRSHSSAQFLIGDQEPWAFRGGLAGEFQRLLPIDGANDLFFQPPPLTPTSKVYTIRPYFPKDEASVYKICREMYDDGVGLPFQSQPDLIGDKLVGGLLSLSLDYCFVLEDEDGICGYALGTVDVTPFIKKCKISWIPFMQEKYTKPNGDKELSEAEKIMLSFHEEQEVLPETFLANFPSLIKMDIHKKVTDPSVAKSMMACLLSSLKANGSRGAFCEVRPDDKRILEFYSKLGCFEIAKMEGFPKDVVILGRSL
# Experiment: OGA cellular assay (ICC detection of O-GlcNAcylated proteins in HEK293 cells inducible for P301L mutant human Tau)
# Type: cell-based
# Settings: for EC50: 6 hours incubation, read-out: Cellular hOGA, pEC50 (converted)
# In short: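 HEK293 cells inducible for P301L Tau, in low-glucose assay medium, treated 6 h with compound at 0.2% DMSO. O-GlcNAcylated proteins detected by CTD110.6 immunostaining, imaged at 488 nm with Hoechst nuclear counts for toxicity. IC50 from non-linear regression, 200 uM Thiamet G as maximum.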
# [1] = HEK293 cells inducible for P301L mutant human Tau
"Emax (HEK293, HEK293 cells inducible for P301L mutant human Tau, maximal effect, Thiamet G 200 uM as maximum)",EC50 [1],"Cellular Emax (%) (HEK293 cells inducible for P301L mutant human Tau, maximal effect, Thiamet G 200 uM as maximum)",SMILES
68%,25.1 nM,–,"Cc1cc([C@H]2CCCN(C(C)c3cnc4c(c3)OCCN4)C2)cc(C)n1 (single isomer, unassigned) [Product 135]"
–,2.57 nM,95%,"Cc1cc(OC[C@H]2CCCN(C(C)c3nc4c(cc3F)OCCO4)C2)cc(C)n1 (single isomer, unassigned) [Product 155]"
